Drawing on PubChem BioAssay (NCI), this text covers TGI and GI50 for 11 compounds.

Where “and” joins values, the source holds several entries; their conditions need not be identical. Equal values may be shown once.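 96-well plates; 48 h exposure; 5 concentrations. Endpoints by linear interpolation between flanking doses. Not reached: highest tested concentration assigned. GI50 = concentration required for 50% inhibition of growth. TGI denotes the concentration required for complete inhibition of growth.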 Some results are limits rather than exact numbers.

What all share (assay): NCI-60 cell line screen, 48 h
Assay [1] deals with CAKI-1 renal.
In assay [2] the test system is NCI-H522 lung.
Assay [3] relates to OVCAR-4 ovarian.
The test system of assay [4] is OVCAR-8 ovarian.
The subject of assay [5] is SF-539 CNS.
Assay [6] concerns SK-MEL-5 melanoma.
Assay [7] concerns SNB-75 CNS.
In assay [8] the test system is T-47D breast.

Take `Cc1ccc(O)c(C(=O)/C=C/c2ccccc2)c1`: the TGI in assay [1], in assay [2], in assay [3], in assay [4], in assay [5] and in assay [6] was > 100 µM each time. Besides, the TGI in assay [7] and in assay [8] was > 100 µM in each case.
For `C=C1CC2(CC(c3ccccc3C)OC(c3ccccc3C)C2)OC1=O` (configuration not stated), the TGI in assay [1] is 4.26 µM; in assay [2] it was 3.23 µM; in assay [3], 5.49 µM; in assay [4], 4.63 µM; in assay [5], 3.1 µM; in assay [6] it was 3.97 µM. The figures for the TGI in assay [7] and in assay [8] were 11.6 µM and 3.21 µM, respectively.
With `O=C1NC(=O)/C(=C/c2ccc3nccc(-c4ccncc4)c3c2)S1`, the GI50 in assay [1] is 0.289 µM; in assay [2], 0.23 µM; in assay [3], 0.503 µM; in assay [4], 0.517 µM; in assay [5], 0.294 µM; in assay [6] it was 0.419 µM. In addition, the GI50 in assay [7] was 0.0518 µM; in assay [8], 0.0497 µM. For the same compound, the TGI in assay [1] is 2.04 µM; in assay [2], 1.81 µM; in assay [3] it was 5.89 µM; in assay [4], > 10 µM; in assay [5], 1.58 µM; in assay [6] it was 1.63 µM. Further, the values for the TGI in assay [7] and in assay [8] were 0.448 µM and 0.432 µM, respectively.
Turning to `O=C(C#Cc1ccccc1)N1CCCCC1`, the TGI in assay [1], in assay [2], in assay [3], in assay [4], in assay [5] and in assay [6] was > 100 µM each time. Moreover, the TGI in assay [7] and in assay [8] was > 100 µM throughout.
In the case of `c1ccc(OCC[P+](c2ccccc2)(c2ccccc2)c2ccccc2)cc1`, the GI50 in assay [1] is 25.4 µM; in assay [2], 0.335 µM; in assay [3] it was 0.66 µM; in assay [4], 1.54 µM; in assay [5] it was 1.89 µM; in assay [6], 0.416 µM. The GI50 in assay [7] is 0.721 µM; in assay [8] it was 0.265 µM. Also, the TGI was > 100 µM in assay [1]; 3.74 µM in assay [2]; 9.44 µM in assay [3]; 15 µM in assay [4]; 13.1 µM in assay [5]; 1.56 µM in assay [6]. For the same compound, the TGI in assay [7] was 5.99 µM; in assay [8], 2.4 µM.
For `Cc1cc(C(=O)NOCCO)c(Nc2ccc(I)cc2F)n(C)c1=O`, the GI50 in assay [1] is 0.185 µM; in assay [2], > 10 µM and 13.7 µM; in assay [4], > 36.5 µM; in assay [5] it was > 38.5 µM; in assay [6], < 0.01 µM; in assay [7], > 10 µM and 17.1 µM. The GI50 in assay [8] was > 10 µM and 78.9 µM. Besides, the TGI in assay [1], in assay [2], in assay [3], in assay [4], in assay [5] and in assay [6] was > 100 µM in each case. Moreover, the TGI in assay [7] and in assay [8] was > 100 µM in each case.
Consider `O=C(Nc1ccc([N+](=O)[O-])cc1Cl)c1cc(Cl)ccc1O`, for which the GI50 in assay [1] is 0.108 µM and 0.227 µM; in assay [2], 0.0764 µM and 0.171 µM; in assay [3] it was 0.156 µM and 0.259 µM; in assay [4], 0.147 µM and 0.33 µM; in assay [5], 0.188 µM and 0.261 µM; in assay [6], 0.0515 µM and 0.116 µM. In addition, the GI50 in assay [7] was 0.155 µM and 0.211 µM; in assay [8] it was 0.107 µM and 0.188 µM. The TGI was 4.21 µM in assay [1]; 13.4 µM and > 100 µM in assay [3]; 0.605 µM in assay [4]; 4.3 µM and 12 µM in assay [5]; 0.15 µM and 0.276 µM in assay [6]; 2.49 µM and 0.864 µM in assay [7]. Further, in assay [8], the TGI is 0.361 µM and 0.836 µM.
For `N/C(=N/O)NOCCC(N)C(=O)O` (configuration not stated), the GI50 in assay [1], in assay [2], in assay [3], in assay [4], in assay [5] and in assay [6] was > 100 µM throughout. Also, the GI50 in assay [7] and in assay [8] was > 100 µM in each case. Besides, the TGI in assay [1], in assay [2], in assay [3], in assay [4], in assay [5] and in assay [6] was > 100 µM throughout. The TGI in assay [7] and in assay [8] was > 100 µM each time.
Consider `O=C(Nc1n[nH]c2cc(-c3ccc(F)cc3)ccc12)C1CC1`, for which the GI50 in assay [1] is 9.75 µM; in assay [2], 4.92 µM; in assay [3], 9.87 µM; in assay [4] it was 12.8 µM; in assay [5], 11.2 µM; in assay [6], 5.56 µM. In addition, the GI50 in assay [7] is 11.1 µM; in assay [8], 6.37 µM. The TGI in assay [1] is > 25 µM; in assay [2], > 21.1 µM; in assay [3] it was > 25 µM; in assay [4] it was > 25 µM; in assay [5], > 25 µM; in assay [6], > 18.1 µM. The TGI in assay [7] is > 25 µM; in assay [8], > 21.7 µM.
Turning to `O=C(Nc1c(Cl)cccc1Cl)Oc1cccc2cccnc12`, the GI50 in assay [1] is 3.19 µM; in assay [2], 3.71 µM; in assay [3] it was 2.9 µM; in assay [4] it was 3.08 µM; in assay [5] it was 4.57 µM; in assay [6] it was 3.39 µM. In addition, the GI50 was 13.5 µM in assay [7] and 3.29 µM in assay [8]. In addition, the TGI in assay [1] was determined as 24.4 µM; in assay [2], 20.3 µM; in assay [3], 14 µM; in assay [4], 50 µM; in assay [5] it was 19 µM; in assay [6], 12.3 µM. The values for the TGI in assay [7] and in assay [8] were 53.6 µM and 14.5 µM, respectively.
`NS(=O)(=O)c1ccc(NC(=O)Nc2cccc3ccccc23)cc1`: the TGI in assay [1] is > 100 µM; in assay [2], 34.9 µM; in assay [3] it was > 100 µM; in assay [4], 40.6 µM; in assay [5], 50.8 µM; in assay [6], > 100 µM. Further, the TGI in assay [7] was 57.7 µM; in assay [8], > 100 µM.
